The source of these data is patent publication US7169932B2 (priority 2001, dated 2007).

pIC50, pKi: −log10 of the molar value. Values joined by “and” are separate entries in the source; they are usually repeats but may differ in a detail not shown here. Identical values can stand only once. Like-named read-outs stand apart in the source and are kept apart here.

One data set deals with HIV-1. The experiment in a line: Cytopathic Effect (CPE) Inhibition Assay (XTT dye reduction). In kind it is cell-based. Conditions: Human immunodeficiency virus 1, 144 h, read-out: Ave CPE EC50 (mM), protection of infected cells, six days, XTT. The method in brief:
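CEM-SS or MT-2 cells infected with HIV-1 RF or NL4–3 (moi 0.025–0.819), 2×10^4 cells/well, incubated six days with half-log compound dilutions. Viability read by XTT formazan at 450 nm; EC50 is the concentration restoring 50% of uninfected-control formazan, CC50 from uninfected treated cells, therapeutic index CC50/EC50.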

The target in the next data set is T1, HIV-1 protease (Q7S) (Human immunodeficiency virus type 1 group M subtype B, UniProt P04585, Q495S).
T1 construct: made in house
The experiment in a line: HIV-1 Protease RET Assay. Type of data set: biochemical. Conditions: RET assay, Q7S enzyme, pH 4.8, 37 C; for Ki: Ave. Ki (nM). The method in brief:
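Ki values came from a RET assay on refolded Q7S protease (2 nM active dimer) cleaving RE(EDANS)SQNYPIVQK(DABCYL)R at 5 μM, read at ex 340/em 490 nm. Reactions ran 12 min at 37 C in 0.1M sodium acetate pH 4.8, 1M NaCl, 5 mM DTT, 10% DMSO; curves were fit with the Morrison tight-binding equation.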

Another data set deals with 46I, 84V, 90M virus. The experiment in a line: Phenotypic susceptibility assay at Virologic, Inc. Type of data set: cell-based, HIV-1. Conditions: Human immunodeficiency virus 1. As for the experimental part:
(§1) Compounds were tested in phenotypic susceptibility assays at Virologic, Inc., (See Petropoulos C. J., Parkin N. T., Limoli K. L., Lie Y. S., Wrin T., Huang W., Tian H., Smith D., Winslow G. A., Capon D J, Whitcomb J M. 2000, “A novel phenotypic drug susceptibility assay for human immunodeficiency virus type 1,” Antimicrob Agents Chemother 44(4):920–928) or using the assay described here. MT-2 cells were infected with either HIV-1 NL4–3 or HIV-1 NL4–3(184V/L90M) and incubated in the presence of serial 0.5 log dilutions of test compounds. Three days later, culture supernatants were collected and virus production, as determined by p24 ELISA, was assayed. Percent inhibition was calculated as p24 concentration in compound-treated samples as compared to infected, compound-free controls. Inhibition of viral replication is determined by measuring reduction in HIV p24 present in the culture supernatant, using a Beckman-Coulter p24 HIV-1 Ag EIA kit and following the supplied protocol. Absorbance is read on a MRX microplate reader (Dynex Technologies). The EC50 was calculated as the concentration of compound that effected a decrease in the p24 production by infected, compound-treated cells to 50% of that produced by infected, compound-free cells.

For data set [1], the system named is HIV-1 NL4–3 or HIV-1 NL4–3(184V/L90M). In words: Susceptibility assay, p24 ELISA in infected MT-2 cells. Type of data set: cell-based. As to conditions: Human immunodeficiency virus 1, MT2, 72 h, read-out: EC50 or IC50 (mM). Here is the method: T-cell lines, CEM-SS, and MT-2, and viruses HIV-1 RF and HIV-1 NL4–3 (pNL4–3) were obtained from the National Institutes of Health (AIDS Research and Reference Reagent Program, Bethesda, Md.).
as §1
A general note: In an ELISA, binding on a coated surface is turned into a signal by an enzyme label.

As usually defined, the EC50 is the concentration at which the effect is half-maximal. A word on the Ki: it is the equilibrium dissociation constant of an inhibitor or competing ligand from its target. Read a high Ki as lower affinity. What is called pIC50 is the negative decadic logarithm of the IC50, by convention in mol/L. A high value points to a small IC50. As for `C=CCNC(=O)[C@H]1N(C(=O)[C@@H](O)[C@H](Cc2ccccc2)NC(=O)c2cccc(O)c2C)CSC1(C)C` [Example A14, (R)-3-((2S,3S)-2-Hydroxy-3-{[1-(3-hydroxy-2-methyl-phenyl)-methanoyl]-amino}-4-phenyl-butanoyl)-5,5-dimethyl-thiazolidine-4-carboxylic acid allylamide], the EC50 in the data set on HIV-1 was 52 nM. This molecule also had an inhibition constant (Ki) on HIV-1 protease (Q7S) of 0.44 nM. The same molecule had a pIC50 in the data set with 46I, 84V, 90M virus of 7.15.
As for `C#CCNC(=O)[C@H]1N(C(=O)[C@@H](O)[C@H](Cc2ccccc2)NC(=O)c2cccc(O)c2C)CSC1(C)C` [Example A17, 3-(2-Hydroxy-3-{[1-(3-hydroxy-2-methyl-phenyl)-methanoyl]-amino}-4-phenyl-butanoyl)-5,5-dimethyl-thiazolidine-4-carboxylic acid prop-2-ynylamide], the EC50 in the data set with HIV-1 is 45 nM. The same molecule showed a Ki on HIV-1 protease (Q7S) of less than 0.1 nM. Besides, the pIC50 with 46I, 84V, 90M virus is 6.99.
Take `Cc1nc(C)c(C(=O)N[C@@H](Cc2ccccc2)[C@H](O)C(=O)N2CSC(C)(C)[C@H]2C(=O)NCc2ccccc2C)s1` [Example B11, 2,4-Dimethyl-thiazole-5-carboxylic acid {1-benzyl-3-[5,5-dimethyl-4-(2-methyl-benzylcarbamoyl)-thiazolidin-3-yl]-2-hydroxy-3-oxo-propyl}-amide]: the EC50 in the data set with HIV-1 was found to be 1180 nM. Affinity on HIV-1 protease (Q7S) was put at a Ki of 1.2 nM. For the same molecule, the pIC50 in the data set on 46I, 84V, 90M virus was 5.77.
By melting point is commonly meant the temperature of the solid-liquid transition. The molecule `CCOc1cccc(CNC(=O)[C@H]2N(C(=O)[C@@H](O)[C@H](Cc3ccccc3)NC(=O)c3cccc(O)c3C)CSC2(C)C)c1` [Example A26, (R)-3-((2S,3S)-2-Hydroxy-3-{[1-(3-hydroxy-2-methyl-phenyl)-methanoyl]-amino}-4-phenyl-butanoyl)-5,5-dimethyl-thiazolidine-4-carboxylic acid 3-ethoxy-benzylamide] displayed a melting point of 105 to 107 °C. The EC50 in the data set on HIV-1 came to 119 nM. Moreover, on HIV-1 protease (Q7S), the Ki is 0.38 nM. The same molecule showed a pIC50 in the data set with 46I, 84V, 90M virus of 6.49.
In the case of `Cc1c(O)cccc1C(=O)N[C@@H](Cc1ccccc1)[C@H](O)C(=O)N1CSC(C)(C)[C@H]1C(=O)NCC#N` [Example A30, (R)-3-((2S,3S)-2-Hydroxy-3-{[1-(3-hydroxy-2-methyl-phenyl)-methanoyl]-amino}-4-phenyl-butanoyl)-5,5-dimethyl-thiazolidine-4-carboxylic acid cyanomethylamide], the EC50 in the data set with HIV-1 stood at 507 nM. The Ki on HIV-1 protease (Q7S) came out at 1.1 nM. This molecule showed a negative-log IC50 (pIC50) with 46I, 84V, 90M virus of 6.08.
As to `Cc1ccccc1CNC(=O)[C@H]1N(C(=O)[C@@H](O)[C@H](Cc2ccccc2)NC(=O)N2CC[C@H](O)C2)CSC1(C)C` (stereo in doubt) [Example B8, 3-(2-hydroxy-3-{[1-(3-hydroxy-pyrrolidin-yl)-methanoyl]-amino}-4-phenyl-butanoyl)-5,5-dimethyl-thiazolidine-4-carboxylic acid-2-methyl-benzylamide], the inhibitory constant (Ki) at HIV-1 protease (Q7S) was 0.31 nM and 1.5 nM. Besides, the negative-log IC50 (pIC50) in the data set on 46I, 84V, 90M virus is 6.39.
Molecule `Cc1c(O)cccc1C(=O)N[C@@H](Cc1ccccc1)[C@H](O)C(=O)N1CSC(C)(C)[C@H]1C(=O)N[C@@H](C)c1ccccc1` [Example A20, (R)-3-((2S,3S)-2-Hydroxy-3-{[1-(3-hydroxy-2-methyl-phenyl)-methanoyl]-amino}-4-phenyl-butanoyl)-5,5-dimethyl-thiazolidine-4-carboxylic acid ((S)-1-phenyl-ethyl)-amide] yielded a melting point of 114 to 115 °C. Further, in the data set on HIV-1, the EC50 worked out at 37 nM. For the same molecule, the Ki at HIV-1 protease (Q7S) was 0.13 nM. Also, the pIC50 in the data set on 46I, 84V, 90M virus was 6.83.
For orientation: pKi means the negative decadic logarithm of the Ki, by convention in mol/L. As to `C=CCNC(=O)[C@H]1N(C(=O)[C@@H](O)[C@H](Cc2ccccc2)NC(=O)c2cc(C)cc(O)c2C)CSC1(C)C` [Example D4, (R)-3-[(2S, 3S)-2-Hydroxy-3-(3-hydroxy-2,5-dimethyl-benzoylamino)-4-phenyl-butyryl]-5,5-dimethyl-thiazolidine-4-carboxylic acid allylamide], the EC50 turned out to be 16 nM in the data set with HIV-1 and 0.00195 mM in data set [1]. The negative logarithm of the Ki (pKi) at HIV-1 protease (Q7S) (read-out: Ave. Ki) is 9.15.
Take `Cc1ccccc1CNC(=O)[C@H]1N(C(=O)[C@@H](O)[C@H](Cc2ccccc2)NC(=O)c2ccccc2C)CSC1(C)C` [Example B16, 3-[2-Hydroxy-3-(2-methyl-benzoylamino)-4-phenyl-butyryl]-5,5-dimethyl-thiazolidine-4-carboxylic acid 2-methyl-benzylamide]: the EC50 with HIV-1 came out at 298 nM; in data set [1], 0.00175 mM. Further, the Ki at HIV-1 protease (Q7S) was less than 0.1 nM.
For `CCCN(C)C(=O)[C@H]1N(C(=O)[C@@H](O)[C@H](Cc2ccccc2)NC(=O)c2cccc(O)c2C)CSC1(C)C` [Example A46, (R)-3-((2S,3S)-2-Hydroxy-3-{[1-(3-hydroxy-2-methyl-phenyl)-methanoyl]-amino}-4-phenyl-butanoyl)-5,5-dimethyl-thiazolidine-4-carboxylic acid methyl-propyl-amide], the melting point was 108 to 110 °C. Also, the EC50 with HIV-1 worked out at 91 nM. At HIV-1 protease (Q7S), this molecule came in with a Ki of 0.31 nM. The EC50 in data set [1] came out at 0.00079 mM.
